# Measured values published in patent US6921667B2, “Methods for direct detection of individual methotrexate metabolites” (Prometheus Laboratories, Inc., priority 2003, dated 2005).
# Assay: Red blood cell methotrexate polyglutamate concentrations in patients on low-dose methotrexate, by HPLC fluorometry with post-column photo-oxidation
# Format: in vivo, human
# Conditions: single patient on 17.5 mg weekly methotrexate for at least 3 months; FIG. 4A; packed red blood cells
# Procedure: The liquid chromatograph was an Agilent 1100 HPLC chemstation system composed of a quaternary pump, a system controller, an autoinjector, a sample cooler kept at 4° C., and a fluorometer. […] Methotrexate polyglutamates were detected with post-column derivatization using a photochemical reactor unit (Aura Industries; New York, N.Y.) equipped with an elongated 254 nm low pressure mercury ultraviolet lamp and containing a 1/16″ outer diameter TEFLON™ tubing (internal diameter 0.25 mm) assembled as a knitted coil and connected on-line between the analytical column and fluorometer. The knitted coil was extended lengthwise through the photochemical reactor unit; all but a portion of the elongated lamp was masked with foil such that only a segment of the knitted coil was irradiated. In particular, the lamp was masked such that only 1 meter of the coil was irradiated with the lamp, which at a flow rate of 1 ml/min corresponded to 3 seconds irradiation. Methotrexate polyglutamate photolytic products were measured at an excitation wavelength of 274 nm and an emission wavelength of 464 nm, unless otherwise indicated. The retention times described herein were measured from time of injection to time of detection at the post-reactor unit fluorometer. […]
# Methotrexate polyglutamate photolytic products were analyzed at an excitation wavelength of 274 nm and an emission wavelength of 464 nm. […]
smiles,measurement,value
"CN(Cc1cnc2nc(N)nc(N)c2n1)c1ccc(C(=O)N[C@@H](CCC(=O)O)C(=O)O)cc1 [MTXPG1, 4-amino-10-methylpteroylglutamic acid]",concentration in red blood cell sample,27 nM
